Results taken from article PMC13099141, “Antibiotic potentiation and inhibition of cross-resistance in pathogens associated with cystic fibrosis” (eLife, 2026).

Tests used:
Assay in all cases: nitrocefin hydrolysis, absorbance at […] nm, sonicated lysate
Assay type in all cases: biochemical
Settings in all cases: 0.4 mM nitrocefin, 100 mM sodium phosphate pH 7.0, 25 °C; dsbA+ E. coli
BEL-1 = target: T1, BEL-1 (Pseudomonas aeruginosa, UniProt Q3SAW3)
T1 construct: gene bla(BEL1); full-length class A beta-lactamase from plasmid pDM1-blaBEL-1 in E. coli MC1000, sonicated lysate; gene from clinical isolate
T1 sequence (Q3SAW3 entry or part of it): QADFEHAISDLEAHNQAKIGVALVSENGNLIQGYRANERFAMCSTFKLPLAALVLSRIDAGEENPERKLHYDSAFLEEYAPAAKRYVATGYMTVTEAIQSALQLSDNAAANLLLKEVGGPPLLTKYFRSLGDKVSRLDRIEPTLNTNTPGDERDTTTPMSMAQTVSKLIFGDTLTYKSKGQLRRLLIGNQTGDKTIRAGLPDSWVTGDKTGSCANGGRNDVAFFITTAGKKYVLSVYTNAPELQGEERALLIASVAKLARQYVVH

SMB-1 = target: T2, SMB-1 (Serratia marcescens, UniProt G5ELM3)
T2 construct: full-length class B3 metallo-beta-lactamase, synthetic gene in pDM1, E. coli MC1000 lysate
T2 sequence (G5ELM3 entry or part of it): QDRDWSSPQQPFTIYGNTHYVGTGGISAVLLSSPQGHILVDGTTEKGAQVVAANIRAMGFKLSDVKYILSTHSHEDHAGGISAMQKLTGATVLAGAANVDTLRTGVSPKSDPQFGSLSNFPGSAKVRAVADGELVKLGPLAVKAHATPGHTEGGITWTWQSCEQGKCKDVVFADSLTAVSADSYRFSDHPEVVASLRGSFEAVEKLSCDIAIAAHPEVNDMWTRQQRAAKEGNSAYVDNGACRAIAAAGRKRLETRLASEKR

POM-1 = target: T3, POM-1 (Metapseudomonas otitidis, UniProt E6Y3G9)
T3 construct: gene pom1; full-length class B3 metallo-beta-lactamase from pDM1-blaPOM-1 in E. coli MC1000, lysate; gene from clinical isolate
T3 sequence (E6Y3G9 entry or part of it): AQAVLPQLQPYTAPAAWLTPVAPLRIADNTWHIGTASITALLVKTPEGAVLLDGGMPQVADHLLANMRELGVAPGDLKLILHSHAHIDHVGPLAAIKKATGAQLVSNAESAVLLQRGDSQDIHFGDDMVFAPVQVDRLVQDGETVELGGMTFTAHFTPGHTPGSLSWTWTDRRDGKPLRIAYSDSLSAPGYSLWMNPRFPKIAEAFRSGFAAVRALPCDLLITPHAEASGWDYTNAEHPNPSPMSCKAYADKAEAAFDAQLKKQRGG

AIM-1 = target: T4, AIM-1 (Pseudomonas aeruginosa, UniProt B5DCA0)
T4 construct: gene blaAIM-1; full-length class B3 metallo-beta-lactamase from pDM1-blaAIM-1 in E. coli MC1000, lysate; gene from clinical isolate
T4 sequence (B5DCA0 entry or part of it): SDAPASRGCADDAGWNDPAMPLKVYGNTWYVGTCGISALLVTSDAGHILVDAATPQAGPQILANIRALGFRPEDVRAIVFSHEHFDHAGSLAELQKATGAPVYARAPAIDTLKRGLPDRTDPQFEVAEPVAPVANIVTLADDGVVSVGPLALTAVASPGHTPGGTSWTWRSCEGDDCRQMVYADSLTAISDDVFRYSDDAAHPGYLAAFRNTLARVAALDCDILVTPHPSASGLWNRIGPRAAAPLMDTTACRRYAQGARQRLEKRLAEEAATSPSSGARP

OXA-50 = target: T5, OXA-50 (Pseudomonas aeruginosa, UniProt G3XCV9)
T5 construct: gene PA5514; full-length class D beta-lactamase from pDM1-blaOXA-50 in E. coli MC1000, lysate; gene from clinical isolate
T5 sequence (G3XCV9 entry or part of it): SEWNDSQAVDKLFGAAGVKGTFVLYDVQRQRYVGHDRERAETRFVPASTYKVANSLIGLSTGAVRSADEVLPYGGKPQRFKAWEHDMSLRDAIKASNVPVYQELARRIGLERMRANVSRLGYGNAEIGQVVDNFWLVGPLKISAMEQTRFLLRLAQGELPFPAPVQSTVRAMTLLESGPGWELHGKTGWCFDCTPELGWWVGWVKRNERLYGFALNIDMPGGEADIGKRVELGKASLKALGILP

CARB-2 = target: T6, CARB-2 (Pseudomonas aeruginosa, UniProt Q03170)
T6 construct: gene pse1; full-length class A carbenicillinase, synthetic gene in pDM1, E. coli MC1000 lysate
T6 sequence (Q03170 18-288): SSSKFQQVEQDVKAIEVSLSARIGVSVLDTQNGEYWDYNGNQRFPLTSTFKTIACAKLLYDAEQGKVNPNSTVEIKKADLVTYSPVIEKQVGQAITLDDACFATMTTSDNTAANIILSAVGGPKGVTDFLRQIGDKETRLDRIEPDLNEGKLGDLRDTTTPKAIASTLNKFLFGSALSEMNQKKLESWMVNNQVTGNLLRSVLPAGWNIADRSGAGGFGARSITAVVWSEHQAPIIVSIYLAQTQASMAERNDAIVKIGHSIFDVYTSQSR

O=C(Cc1cccs1)N[C@@H]1C(=O)N2C(C(=O)O)=C(/C=C/c3ccc([N+](=O)[O-])cc3[N+](=O)[O-])CS[C@H]12 [nitrocefin]
nitrocefin hydrolysis, absorbance at 490 nm, sonicated lysate (BEL-1): The hydrolysis of the chromogenic β-lactam nitrocefin by cysteine-containing β-lactamases is impaired | nitrocefin hydrolysis, absorbance at 490 nm, sonicated lysate (SMB-1): The hydrolytic activities of both tested β-lactamases are significantly reduced in the absence of DsbA | nitrocefin hydrolysis, absorbance at 490 nm, sonicated lysate (POM-1): The hydrolytic activities of both tested β-lactamases are significantly reduced in the absence of DsbA | nitrocefin hydrolysis, absorbance at 490 nm, sonicated lysate (AIM-1): The hydrolysis of the chromogenic β-lactam nitrocefin by cysteine-containing β-lactamases is impaired | nitrocefin hydrolysis, absorbance at 490 nm, sonicated lysate (OXA-50): The hydrolysis of the chromogenic β-lactam nitrocefin by cysteine-containing β-lactamases is impaired | nitrocefin hydrolysis, absorbance at 490 nm, sonicated lysate (CARB-2): The hydrolysis of the chromogenic β-lactam nitrocefin by cysteine-containing β-lactamases is impaired
